From patent US11001590B2, “Pyrazolopyrimidine derivatives” (BAYER ANIMAL HEALTH GMBH, priority 2016, dated 2021) come the findings set out here.

In series [1] the test system is Nippostrongylus brasiliensis. The series can be described thus: In vitro assay 2: Nippostrongylus brasiliensis (NIPOBR), acetylcholine esterase readout. The note with it: adult worms, read-out: activity (reduction of AChE compared to negative control); for inhibition at 1 µg/mL: 1 μg/ml (1 ppm); for inhibition at 10 µg/mL: 10 μg/ml (10 ppm). The method, boiled down:
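Adult worms were washed in saline with antibiotics/antimycotic, then incubated with compound at 10 μg/ml (10 ppm) or 1 μg/ml (1 ppm) final, from DMSO stock. Acetylcholine esterase activity in a medium aliquot, compared with a negative control, served as the anthelmintic readout.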

The test system of series [2] is Dirofilaria immitis microfilariae. The series can be described thus: In vitro assay 3: Dirofilaria immitis microfilariae (DIROIM L1), motility. The note with it: 72 h, reduction of motility vs negative control, 72 h incubation.
Series [3] relates to Dirofilaria immitis third-stage larvae. The series can be described thus: In vitro assay 4: Dirofilaria immitis (DIROIM L4), motility of larvae. Particulars: 72 h.
A further series relates to Cooperia curticei. The series can be described thus: In vitro assay 5: Cooperia curticei (COOPCU), larval mortality. Particulars: 120 h, read-out: activity (percentage of larval mortality).
Series [4] deals with Litomosoides sigmodontis third-stage larvae. The series can be described thus: In vitro assay 7: Litomosoides sigmodontis L3 (LTMOSI), motility. The note with it: 72 h, reduction of motility vs negative control, 72 h incubation.
A further series concerns Haemonchus contortus. The series can be described thus: In vitro assay 6: Haemonchus contortus (HAEMCO), larval mortality. The note with it: Haemonchus contortus, 120 h, read-out: activity (percentage of larval mortality).
Series [5] is described as follows: log P by HPLC on reversed phase columns (Method L0; [a] acidic, [b] neutral range).
Method: Calibration was done with straight-chain alkan-2-ones (with 3 to 16 carbon atoms) with known log P values (measurement of log P values using retention times with linear interpolation between successive alkanones). Lambda-max-values were determined using UV-spectra from 200 nm to 400 nm and the peak values of the chromatographic signals.
The target of another series is C. elegans Slo-1a (Caenorhabditis elegans, UniProt Q95V25). The series can be described thus: In vitro assay 1: C. elegans Slo-1a, action at a recombinant C. elegans CHO cell line (membrane potential measurement).
Sequence of C. elegans Slo-1a (Q95V25 whole entry): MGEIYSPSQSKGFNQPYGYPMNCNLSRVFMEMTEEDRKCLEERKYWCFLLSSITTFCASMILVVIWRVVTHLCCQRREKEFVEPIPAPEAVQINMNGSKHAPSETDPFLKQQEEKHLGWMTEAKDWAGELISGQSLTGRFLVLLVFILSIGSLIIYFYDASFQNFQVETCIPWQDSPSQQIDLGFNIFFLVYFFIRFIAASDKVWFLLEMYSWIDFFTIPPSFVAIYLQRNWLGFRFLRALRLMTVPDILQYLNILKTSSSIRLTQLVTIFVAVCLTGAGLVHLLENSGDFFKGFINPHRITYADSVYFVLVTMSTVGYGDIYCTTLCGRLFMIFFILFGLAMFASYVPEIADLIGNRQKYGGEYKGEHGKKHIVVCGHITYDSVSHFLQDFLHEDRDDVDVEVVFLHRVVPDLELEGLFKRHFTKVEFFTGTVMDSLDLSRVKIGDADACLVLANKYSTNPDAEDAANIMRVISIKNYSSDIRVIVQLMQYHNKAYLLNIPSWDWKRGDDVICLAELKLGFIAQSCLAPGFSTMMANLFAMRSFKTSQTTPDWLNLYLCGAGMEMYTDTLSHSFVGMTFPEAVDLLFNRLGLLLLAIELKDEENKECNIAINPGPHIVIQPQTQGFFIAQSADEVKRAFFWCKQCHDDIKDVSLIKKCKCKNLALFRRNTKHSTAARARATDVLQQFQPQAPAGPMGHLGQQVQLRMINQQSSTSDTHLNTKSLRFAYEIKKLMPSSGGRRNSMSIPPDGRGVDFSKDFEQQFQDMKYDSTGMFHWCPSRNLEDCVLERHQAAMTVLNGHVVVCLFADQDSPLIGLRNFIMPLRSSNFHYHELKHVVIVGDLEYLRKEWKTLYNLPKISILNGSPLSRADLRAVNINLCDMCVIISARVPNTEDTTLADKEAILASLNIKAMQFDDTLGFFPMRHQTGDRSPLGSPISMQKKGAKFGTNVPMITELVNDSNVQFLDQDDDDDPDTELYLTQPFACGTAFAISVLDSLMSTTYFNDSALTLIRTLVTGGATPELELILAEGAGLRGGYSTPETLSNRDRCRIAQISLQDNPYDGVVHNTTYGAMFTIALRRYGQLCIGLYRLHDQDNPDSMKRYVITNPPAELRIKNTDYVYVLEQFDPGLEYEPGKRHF

Method for C. elegans Slo-1a: In Vitro Assay 1: C. Eleqans Slo-La—Action at a Recombinant C. elegans Cell Line
Cells were cultured at 37° C. and 5% CO2 in MEMalpha with Gutamax I (Invitrogen, Nr.: 32571), supplemented with 10% (v/v) heat inactivated fetal bovine serum (Invitrogen, Nr.: 10500), G418 (1 mg/ml, Invitrogen, Nr.: 10131). Cells were detached using Accutase (Sigma, Nr.: A6964).
Membrane Potential Measurements
Laboratory compound testing was performed on 384-well microtiter plates (MTPs, Greiner, Nr.: 781092). 8000 cells/well were plated onto 384-well MTPs and cultured for 20 to 24 hours at 37° C. and 5% CO2. After removal of the cell culture medium, the cells were washed once with tyrode (150 mM NaCl, 0.3 mM KCl, 2 mM CaCl2, 1 mM MgCl2, 0.8 mM NaH2PO4, 5 mM Glucose, 28 mM Hepes, pH 7.4) and then loaded with the voltage sensitive dye of the Membrane Potential Assay Kit diluted in tyrode for 1 h at room temperature.
After starting the measurement of fluorescence using a FLIPR Tetra (Molecular Devices, Exc. 510-545 nm, Emm. 565-625 nm), test compounds were added followed by the addition of KCl tyrode (final assay concentration: 70 mM KCl, 2 mM CaCl2, 1 mM MgCl2, 0.8 mM NaH2PO4, 5 mM Glucose, 28 mM Hepes, pH 7.4, including the voltage sensitive dye). The measurement was completed after 7 minutes.
Method for Cooperia curticei: In Vitro Assay 5: Cooperia curticei (COOPCU)
Solvent: Dimethyl Sulfoxide
Approximately 40 nematode larvae (Cooperia curticei) are transferred into a test tube containing the compound solution.
After 5 days percentage of larval mortality is recorded. 100% efficacy means all larvae are killed; 0% efficacy means no larvae are killed.
Method for Haemonchus contortus: In Vitro Assay 6: Haemonchus contortus (HAEMCO)
Solvent: dimethyl sulfoxide
Approximately 40 larvae of the red stomach worm (Haemonchus contortus) are transferred into a test tube containing compound solution.
After 5 days the percentage of larval mortality is recorded. 100% efficacy means all larvae are killed, 0% efficacy means no larvae are killed.

For the compound `COc1c(F)ccc(-c2c(C)nn3c(C(C)C)c(C(=O)N[C@H]4CCOc5ccccc54)cnc23)c1F` [Example 192], the inhibition at 1 µg/mL in series [1] was greater than 80%. Further, the inhibition at 10 µg/mL in series [1] was greater than 80%. Besides, the EC50 in series [2] is less than 0.1 µg/mL; in series [3], less than 0.1 µg/mL; in series [4] it was less than 0.1 µg/mL; on C. elegans Slo-1a it was 0.398 nM. Also, the mortality at 20 ppm was determined as 100% with Cooperia curticei and 90% in the series on Haemonchus contortus. In addition, in series [5], the chromatographic logP was determined as 4.32.

Turning to `Cc1nn2c(C(C)C)c(C(=O)N[C@H]3CCOc4ccccc43)cnc2c1-c1cc(Cl)cc(Cl)c1Cl` [Example 234], the inhibition at 1 µg/mL in series [1] was greater than 80%. In series [1], the inhibition at 10 µg/mL was greater than 80%. The EC50 is less than 0.1 µg/mL in series [2], less than 0.1 µg/mL in series [3], less than 0.1 µg/mL in series [4] and 1.26 nM on C. elegans Slo-1a. Also, the mortality at 20 ppm with Cooperia curticei and with Haemonchus contortus was 90% in each case. In series [5], the chromatographic logP was determined as 5.48.

With `Cc1nn2c(C(C)C)c(C(=O)N[C@H]3CCOc4ccccc43)cnc2c1-c1c(F)ccc(Cl)c1F` [Example 255], the inhibition at 1 µg/mL in series [1] was greater than 80%. In addition, in series [1], the inhibition at 10 µg/mL is greater than 80%. For the same compound, the EC50 is less than 0.1 µg/mL in series [2], less than 0.1 µg/mL in series [3], less than 0.1 µg/mL in series [4] and 1.58 nM at C. elegans Slo-1a. Besides, the mortality at 20 ppm in the series with Cooperia curticei and in the series with Haemonchus contortus was 90% throughout. The compound further displayed a chromatographic logP in series [5] of 4.72.

As to `Cc1nn2c(C(C)C)c(C(=O)N[C@H]3CCOc4ccccc43)cnc2c1-c1cc(Cl)ccc1F` [Example 256], the EC50 in series [2] was less than 0.1 µg/mL; in series [3], less than 0.1 µg/mL; in series [4], less than 0.1 µg/mL; at C. elegans Slo-1a, 2.51 nM. For the same compound, the mortality at 20 ppm with Cooperia curticei and with Haemonchus contortus was 80% throughout. Moreover, the chromatographic logP in series [5] is 4.87.

Regarding `Cc1nn2c(C(C)C)c(C(=O)N[C@H]3CCOc4ccccc43)cnc2c1-c1cccc(N(C)C)c1F` [Example 260], the inhibition at 1 µg/mL in series [1] is greater than 80%. Moreover, the inhibition at 10 µg/mL in series [1] is greater than 80%. Besides, the EC50 is less than 1 µg/mL in series [2] and 3.16 nM at C. elegans Slo-1a. In addition, the mortality at 20 ppm in the series on Cooperia curticei was 90%; in the series on Haemonchus contortus it was 80%. In series [5], this compound showed a chromatographic logP of 4.18.

Regarding `Cc1nn2c(C3CC3)c(C(=O)N[C@H]3CCc4ccccc43)cnc2c1-c1c(F)ccc(Cl)c1F` [Example 436], the inhibition at 1 µg/mL in series [1] was greater than 80%. Further, in series [1], the inhibition at 10 µg/mL is greater than 80%. Further, the EC50 is less than 0.1 µg/mL in series [2], less than 0.1 µg/mL in series [3], less than 0.1 µg/mL in series [4] and 1.58 nM at C. elegans Slo-1a. Further, the mortality at 20 ppm in the series with Cooperia curticei and in the series with Haemonchus contortus was 80% in each case. The chromatographic logP in series [5] stood at 4.18.

Take `Cc1nn2c(C(C)C)c(C(=O)N[C@H]3CCOc4ccccc43)cnc2c1-c1cccc2c1CCN2C` [Example 461]: the inhibition at 1 µg/mL in series [1] is greater than 80%. Also, the inhibition at 10 µg/mL in series [1] was greater than 80%. Further, the EC50 in series [2] is less than 1 µg/mL; in series [3], less than 0.1 µg/mL; in series [4], less than 0.1 µg/mL; on C. elegans Slo-1a, 2 nM. Moreover, the results for the mortality at 20 ppm in the series with Cooperia curticei and in the series on Haemonchus contortus were 90% and 80%, respectively. In addition, the chromatographic logP in series [5] was found to be 4.11.

For the compound `Cc1nn2c(C3CC3)c(C(=O)N[C@H]3CCOc4ccccc43)cnc2c1-c1cccc(F)c1Cl` [Example 472], in series [1], the inhibition at 1 µg/mL was greater than 80%. Further, the EC50 in series [2] was less than 0.1 µg/mL; in series [3], less than 0.1 µg/mL; in series [4], less than 0.1 µg/mL; at C. elegans Slo-1a it was 1.58 nM. For the same compound, the mortality at 20 ppm with Cooperia curticei came to 80%. Also, the mortality at 4 ppm in the series with Haemonchus contortus was determined as 80%. This compound also displayed a chromatographic logP in series [5] of 3.72.

As for `Cc1nn2c(N3CCOCC3)c(C(=O)N[C@H]3CCOc4ccccc43)cnc2c1-c1cccc(Cl)c1Cl` [Example 517], the inhibition at 1 µg/mL in series [1] was greater than 80%. Also, the inhibition at 10 µg/mL in series [1] was greater than 80%. For the same compound, the EC50 in series [2] was less than 0.1 µg/mL; in series [3] it was less than 0.1 µg/mL; in series [4], less than 0.1 µg/mL; on C. elegans Slo-1a it was 0.631 nM. For the same compound, the mortality at 20 ppm in the series on Cooperia curticei and in the series on Haemonchus contortus was 100% each time. The chromatographic logP in series [5] came to 3.51.

`Cc1nn2c(N(C)C)c(C(=O)N[C@H]3CCOc4ccccc43)cnc2c1-c1cccc(Cl)c1Cl` [Example 518]: in series [1], the inhibition at 1 µg/mL is greater than 80%. Besides, in series [1], the inhibition at 10 µg/mL is greater than 80%. Further, the EC50 was less than 0.1 µg/mL in series [2], less than 0.1 µg/mL in series [3], less than 0.1 µg/mL in series [4] and 1 nM on C. elegans Slo-1a. For the same compound, the mortality at 20 ppm in the series on Cooperia curticei and in the series on Haemonchus contortus was 100% throughout. The compound further had a chromatographic logP in series [5] of 3.94.

Turning to `COc1c(F)cc(F)c(-c2c(C)nn3c(N4CCOCC4)c(C(=O)N[C@H]4CCOc5ccccc54)cnc23)c1F` [Example 531], the inhibition at 1 µg/mL in series [1] was greater than 80%. For the same compound, the EC50 in series [2] is less than 0.1 µg/mL; in series [3] it was less than 0.1 µg/mL; in series [4], less than 0.1 µg/mL; on C. elegans Slo-1a, 1 nM. Moreover, the mortality at 20 ppm with Cooperia curticei and in the series with Haemonchus contortus was 100% each time. Moreover, the chromatographic logP in series [5] worked out at 2.88.

Turning to `CNc1c(C(=O)N[C@H]2CCOc3ccccc32)cnc2c(-c3cccc(Cl)c3Cl)c(C)nn12` [Example 548], the EC50 was less than 0.1 µg/mL in series [2] and 6.31 nM at C. elegans Slo-1a. Moreover, the mortality at 20 ppm with Cooperia curticei and with Haemonchus contortus was 90% throughout. This compound had a chromatographic logP in series [5] of 4.18.

The EC50 is the concentration at which the effect is half-maximal. One may read the mortality as the share of the test organisms that died. What is called chromatographic logP is lipophilicity estimated from chromatographic retention. Low readings indicate lower lipophilicity, high ones higher lipophilicity.
